# Measurements published in patent publication US20030144219A1, “Formulations and methods for treatment or amelioration of inflammatory conditions” (priority 2001, published 2003).
# Experiments:
# [1] = Human ingestion of DHA in studies in support of the invention; format: in vivo; conditions: approximately 800 mg DHA daily
# Experimental: The average dietary intake of DHA (10-60 mg/day) in the American diet is relatively low in comparison to intake in countries where fish or fish products comprise higher percentages of the diet. […] Generally, ranges of about 10-10,000 mg, or more specifically, about 50-2000 mg, or 100-1000 mg will-be preferred. […] Appropriate dosages of other polyunsaturated fatty acids can be estimated with reference to this study, based on known safe ingestion levels, or may be determined empirically, with the guidance provided herein.
# [2] = 3.6 gm DHA per day ingested by humans; cited from earlier work
structure (smiles),measurement,setting,value
"CC/C=C\C/C=C\C/C=C\C/C=C\C/C=C\C/C=C\CCC(=O)O [DHA, all-cis 4,7,10,13,16,19-docosahexaenoic acid]",adverse effects,[1],no apparent adverse effects
same,toxicities,[2],no apparent toxicities
